Results reported in ChEMBL document CHEMBL1130192, “Synthesis and antiviral activity of C2 analogs of enviroxime: an exploration of the role of critical functionality” (J Med Chem, 1997).
In brackets after ≈: the same amount, converted by molar mass.

Legend:
HeLa [1] = assay: Antiviral activity against Rhinovirus (RV-14) in HeLa cells using CPE/XTT assay; assay type: functional, cell-based; conditions: Homo sapiens
HeLa [2] = assay: Antiviral activity against Poliovirus (PV-1) in HeLa cells using CPE/XTT assay; assay type: functional, cell-based; conditions: Homo sapiens
HeLa [3] = assay: Antiviral activity against Rhinovirus (RV-16) in HeLa cells using CPE/XTT assay; assay type: functional, cell-based; conditions: Homo sapiens
HeLa [4] = assay: Antiviral activity against Rhinovirus (RV-2) in HeLa cells using CPE/XTT assay; assay type: functional, cell-based; conditions: Homo sapiens
HeLa [5] = assay: Antiviral activity against Coxsackievirus (CoxA21) in HeLa cells using CPE/XTT assay; assay type: functional, cell-based; conditions: Homo sapiens
HeLa [6] = assay: Antiviral activity against Rhinovirus (RV-2) in HeLa cells using CPE/XTT assay in HeLa cells using CPE/XTT assay; assay type: functional, cell-based; conditions: Homo sapiens
BSC-1 [7] = assay: Antiviral activity against Poliovirus (PV-1) using plaque reduction assay in BSC1 cells; assay type: functional, cell-based, Cercopithecidae; conditions: Chlorocebus aethiops
BSC-1 [8] = assay: Antiviral activity against Poliovirus (PV-1) using plaque reduction assay using BSC1 cells; assay type: functional, cell-based, Cercopithecidae; conditions: Chlorocebus aethiops
HeLa [9] = assay: Antiviral activity against Coxsackie virus (CoxA21) in HeLa cells using CPE/XTT assay; assay type: functional, cell-based; conditions: Homo sapiens

| Structure (SMILES) | IC50 (HeLa [1]) | IC50 (HeLa [2]) | IC50 (HeLa [3]) | IC50 (HeLa [4]) | IC50 (HeLa [5]) | IC50 (HeLa [6]) | IC50 (BSC-1 [7]) | IC50 (BSC-1 [8]) | IC50 (HeLa [9]) |
| --- | --- | --- | --- | --- | --- | --- | --- | --- | --- |
| Cc1nc2ccc(/C(=N/O)c3ccccc3)cc2n1S(=O)(=O)C(C)C | 0.34 µg/mL (≈ 0.951 µM) | 0.23 µg/mL (≈ 0.643 µM) | 0.18 µg/mL (≈ 0.504 µM) | 0.24 µg/mL (≈ 0.671 µM) | 0.05 µg/mL (≈ 0.14 µM) |  |  |  |  |
| CC(C)S(=O)(=O)n1c(N(C)C)nc2ccc(/C(=N/O)c3ccccc3)cc21 | 49 µg/mL (≈ 127 µM) | 4.55 µg/mL (≈ 11.8 µM) | 0.64 µg/mL (≈ 1.66 µM) | 30.3 µg/mL (≈ 78.4 µM) | 2.19 µg/mL (≈ 5.67 µM) |  |  |  |  |
| CC(C)S(=O)(=O)n1cnc2ccc(/C(=N/O)c3ccccc3)cc21 | 0.53 µg/mL (≈ 1.54 µM) | 0.57 µg/mL (≈ 1.66 µM) | 0.16 µg/mL (≈ 0.466 µM) |  | 0.12 µg/mL (≈ 0.349 µM) | 0.19 µg/mL (≈ 0.553 µM) |  |  |  |
| COc1nc2ccc(/C(=N/O)c3ccccc3)cc2n1S(=O)(=O)C(C)C | 0.48 µg/mL (≈ 1.29 µM) | 0.57 µg/mL (≈ 1.53 µM) | 0.18 µg/mL (≈ 0.482 µM) | 0.54 µg/mL (≈ 1.45 µM) | 0.17 µg/mL (≈ 0.455 µM) |  |  |  |  |
| CSc1nc2ccc(/C(=N/O)c3ccccc3)cc2n1S(=O)(=O)C(C)C | 0.76 µg/mL (≈ 1.95 µM) | 0.59 µg/mL (≈ 1.51 µM) | 0.18 µg/mL (≈ 0.462 µM) | 0.69 µg/mL (≈ 1.77 µM) | 0.18 µg/mL (≈ 0.462 µM) |  |  |  |  |
| CC(C)n1c(N)nc2ccc(/C(=N/O)c3ccccc3)cc21 |  |  |  |  |  |  | 0.09 µg/mL (≈ 0.306 µM) |  |  |
| CNc1nc2ccc(/C(=N/O)c3ccccc3)cc2n1S(=O)(=O)C(C)C | 24.4 µg/mL (≈ 65.5 µM) | 6.16 µg/mL (≈ 16.5 µM) | 1.49 µg/mL (≈ 4 µM) | 54.8 µg/mL (≈ 147 µM) | 7.11 µg/mL (≈ 19.1 µM) |  |  |  |  |
| CC(C)S(=O)(=O)n1c(N)nc2ccc(/C(=N/O)c3ccccc3)cc21 [ENVIROXIME] | 0.04 µg/mL (≈ 0.112 µM) | 0.06 µg/mL (≈ 0.167 µM) | 0.04 µg/mL (≈ 0.112 µM) | 0.07 µg/mL (≈ 0.195 µM) |  |  |  | 0.02 µg/mL (≈ 0.0558 µM) | 0.05 µg/mL (≈ 0.139 µM) |
